Converted amounts (≈) assume the structure as drawn. “Also recorded” adds a separate entry of the source. Where two headings read alike, the source gives them in different places.
Columns and labels:
E. coli ATCC 25922 = assay: Broth microdilution MIC (time-kill study); format: cell-based, Escherichia coli
Klebsiella spp. = assay: Broth microdilution MIC, 50 clinical isolates (20 K. oxytoca, 30 K. pneumoniae); format: cell-based
Experimental: Minimal inhibitory concentration (MIC) values were determined by broth microdilution or agar dilution in accordance with guidelines from the Clinical and Laboratory Standards Institute (CLSI; (1) “Methods for Dilution Antimicrobial Susceptibility Tests for Bacteria That Grow Aerobically; Approved Standard; 11th ed.” CLSI standard M07-A11, 2018; (2) “Performance Standards for Antimicrobial Susceptibility Testing; Twenty-Eighth Informational Supplement,” CLSI document M100-S28, 2018; and (3) “Methods for Antimicrobial Susceptibility Testing of Anaerobic Bacteria; Approved Standard—Eighth Edition,” CLSI document M11-A8, 2012).
Tested aerobically by broth microdilution: • Escherichia coli, n=50 • Klebsiella spp., n=50 • Pseudomonas aeruginosa, n=50 • Streptococcus spp., n=50 • Staphylococcus aureus, n=50 • Enterococcus faecalis, n=50 • Enterobacter aerogenes, n=50 • Proteus mirabilis, n=50
Broth microdilution testing of aerobic bacteria was conducted in cation-adjusted Mueller Hinton broth (MHBII). For testing streptococci, lysed horse blood (LHB) was added to MHBII broth at a final concentration of 3%. Where LHB was used, it was added after filtering.
Broth microdilution susceptibility testing in 96-well microplates was conducted in accordance with CLSI methods (1) and (2). Automated liquid handlers were used to conduct serial dilutions and liquid transfers, including the Multidrop 384 (Labsystems, Helsinki, Finland), Biomek 2000, and the Biomek FX (Beckman Coulter, Fullerton, Calif.). All wells in columns 2 through 12 of a standard 96-well microdilution plate (Costar 3795) were filled with 150 μL of the appropriate diluent. Then, 300 μL of the test agents were added to the wells of column 1 of the plates at 100× the highest final concentration to be tested. Serial two-fold dilutions were made across the rows through column 11 using the Biomek 2000. The wells of column 12 contained no drug and served as the growth control wells. This plate served as the “mother plate” from which MIC assay plates or “daughter plates” were made.
The daughter plates were loaded with 190 μL per well of the appropriate medium using the Multidrop 384. The daughter plates were created using the Biomek FX which transferred 2 μL of drug solution from each well of a mother plate to each corresponding well of the daughter plate in a single step. A standardized inoculum of each test organism was prepared per CLSI methods (1) to equal a 0.5 McFarland standard, followed by a dilution of 1:20 for aerobes and 1:10 for anaerobes. The plates were then inoculated with 10 μL of the diluted inoculum using the Biomek 2000 from low to high drug concentration, resulting in a final concentration of approximately 5×10^5 CFU/mL per well. An un-inoculated plate was incubated in parallel for each medium for the purpose of assessing solubility of the drug in the test media.
Inoculated plates were stacked 3 or 4 high, covered with a sterile lid on the top plate, placed into boxes with CO2 planchets (streptococci) or plastic bags (all other isolates). Plates were incubated at 35° C. for 16-24 hr in ambient air for aerobes or for 42-48 hr in the anaerobic environment of the Bactron II anaerobe chamber (Sheldon Manufacturing Co.; Cornelius, Oreg.). Following incubation, the microplates were removed from the incubator and viewed from the bottom using a plate viewer. The MIC values were read and recorded as the lowest concentration of drug that inhibited visible growth of the organism as per CLSI methods (1) and (2).

Prevotella spp. = assay: Agar dilution MIC, 30 clinical isolates; format: cell-based; conditions: for Mode: modal MIC
[1] = test system: Streptococcus spp. spontaneous mutants; assay: organism not typed; format: cell-based
In short: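 Spontaneous mutants from drug selection plates were tested by CLSI broth microdilution in MHB II with two-fold serial drug dilutions. Inoculum was about 5×10^5 CFU/mL, incubated aerobically at 35° C. for 18-20 hr. MIC was the lowest concentration inhibiting visible growth.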

[2] = 30 Prevotella spp. clinical isolates
[3] = S. pneumoniae ATCC 49619, selected on rifaximin 4X MIC, Colony A
[4] = S. pneumoniae ATCC 49619, selected on rifaximin 4X MIC, Colony B
[5] = S. pneumoniae ATCC 49619, selected on rifaximin 8X MIC, Colony A
[6] = S. pneumoniae ATCC 49619, selected on rifaximin 8X MIC, Colony B
[7] = S. pneumoniae ATCC 49619 Parent
[8] = S. pyogenes ATCC 49399, selected on rifaximin 4X MIC, Colony A
[9] = S. pyogenes ATCC 49399, selected on rifaximin 4X MIC, Colony B
[10] = S. pyogenes ATCC 49399, selected on rifaximin 8X MIC, Colony A
[11] = S. pyogenes ATCC 49399, selected on rifaximin 8X MIC, Colony B

Question: Which results are given for `C[C@@H](O)[C@H]1C(=O)N2C(C(=O)O)=C(S[C@@H]3CN[C@H](C(=O)N(C)C)C3)[C@H](C)[C@H]12` [meropenem]?
Answer: MIC (E. coli ATCC 25922; E. coli ATCC 25922): 0.015 µg/mL (≈ 0.0391 µM); MIC (E. coli ATCC 25922; Escherichia coli, ATCC25922, broth microdilution, read-out: MIC): 0.015 µg/mL (≈ 0.0391 µM); % R (Klebsiella spp.): Sixteen; % S (Klebsiella spp.): 84%; Mode (Klebsiella spp.): 0.015 µg/mL; relative activity among drugs tested (Klebsiella spp.): most active drug evaluated; also recorded: MIC50 value for meropenem was the lowest; Cumulative percentage of isolates at MIC (Klebsiella spp.; 0.015 μg/mL): 58.0%; Number of test isolates at MIC (Klebsiella spp.; 0.015 μg/mL): 27; Cumulative percentage of isolates at MIC (Klebsiella spp.; 0.03 μg/mL): 80.0%; Number of test isolates at MIC (Klebsiella spp.; 0.03 μg/mL): 11; Cumulative percentage of isolates at MIC (Klebsiella spp.; 0.06 μg/mL): 82.0%; Number of test isolates at MIC (Klebsiella spp.; 0.06 μg/mL): 1; Cumulative percentage of isolates at MIC (Klebsiella spp.; 0.5 μg/mL): 84.0%; Number of test isolates at MIC (Klebsiella spp.; 0.5 μg/mL): 1; Cumulative percentage of isolates at MIC (Klebsiella spp.; 8 μg/mL): 88.0%; Number of test isolates at MIC (Klebsiella spp.; 8 μg/mL): 2; Cumulative percentage of isolates at MIC (Klebsiella spp.; >8 μg/mL): 100.0%; Number of test isolates at MIC (Klebsiella spp.; >8 μg/mL): 6; MIC50 (Klebsiella spp.; Klebsiella, read-out: MIC50): 0.015 µg/mL (≈ 0.0391 µM); MIC90 (Klebsiella spp.; Klebsiella, read-out: MIC90): > 8 µg/mL; % R (Klebsiella spp.; listed as MEM): 16%; MIC90 (Klebsiella spp.; listed as MEM): >8 µg/mL; Cumulative percentage of isolates at MIC (Klebsiella spp.; ≤0.008 μg/mL): 4.0%; Number of test isolates at MIC (Klebsiella spp.; ≤0.008 μg/mL): 2; MIC range (Prevotella spp.): ≤0.008 to 0.3 µg/mL; isolates susceptible (Prevotella spp.): All were susceptible; relative activity among drugs tested (Prevotella spp.): most active drug tested; also recorded: most active agent; % S (Prevotella spp.; [2]): 100%; MIC50 (Prevotella spp.; [2]): 0.06 µg/mL (≈ 0.156 µM); MIC90 (Prevotella spp.; [2]): 0.12 µg/mL (≈ 0.313 µM); MIC range (Prevotella spp.; [2]): ≤0.008 to 0.3 µg/mL; MIC50 (Prevotella spp.; Prevotella, read-out: MIC50): 0.06 µg/mL (≈ 0.156 µM); MIC90 (Prevotella spp.; Prevotella, read-out: MIC90): 0.12 µg/mL (≈ 0.313 µM); Mode (Prevotella spp.; [2]): 0.06 µg/mL; MIC [1, 3]: 0.03 µg/mL (≈ 0.0782 µM); MIC [1, 4]: 0.03 µg/mL (≈ 0.0782 µM); MIC [1, 5]: 0.03 µg/mL (≈ 0.0782 µM); MIC [1, 6]: 0.03 µg/mL (≈ 0.0782 µM); MIC [1, 7]: 0.03 µg/mL (≈ 0.0782 µM); MIC [1, 8]: 0.002 µg/mL (≈ 0.00522 µM); MIC [1, 9]: 0.004 µg/mL (≈ 0.0104 µM); MIC [1, 10]: 0.004 µg/mL (≈ 0.0104 µM); MIC [1, 11]: 0.004 µg/mL (≈ 0.0104 µM); MIC ([1]; S. pyogenes ATCC 49399 Parent): 0.004 µg/mL (≈ 0.0104 µM); MIC ([1]; Streptococcus, ATCC13813, S. agaloctiae ATCC 13813, selected on rifaximin 4X MIC, Colony A): 0.015 µg/mL (≈ 0.0391 µM); MIC ([1]; Streptococcus, ATCC13813, S. agaloctiae ATCC 13813, selected on rifaximin 4X MIC, Colony B): 0.015 µg/mL (≈ 0.0391 µM); MIC ([1]; Streptococcus, ATCC13813, S. agaloctiae ATCC 13813, selected on rifaximin 8X MIC, Colony A): 0.015 µg/mL (≈ 0.0391 µM); MIC ([1]; Streptococcus, ATCC13813, S. agaloctiae ATCC 13813, selected on rifaximin 8X MIC, Colony B): 0.03 µg/mL (≈ 0.0782 µM); MIC ([1]; Streptococcus, ATCC13813, S. agaloctiae ATCC 13813 Parent): 0.008 µg/mL (≈ 0.0209 µM)

Question: For `CO[C@H]1/C=C/O[C@@]2(C)Oc3c(C)c(O)c4c(O)c(c5c(nc6cc(C)ccn65)c4c3C2=O)NC(=O)/C(C)=C\C=C\[C@H](C)[C@H](O)[C@@H](C)[C@@H](O)[C@@H](C)[C@H](OC(C)=O)[C@@H]1C` [rifaximin], which MIC (E. coli ATCC 25922; E. coli ATCC 25922) is on record?
Answer: Its MIC is 8 µg/mL (≈ 10.2 µM).

Question: And the MIC (E. coli ATCC 25922; broth microdilution)?
Answer: The MIC was 8 µg/mL (≈ 10.2 µM).

Question: And the MIC50 (Klebsiella spp.)?
Answer: Its MIC50 is 32 µg/mL (≈ 40.7 µM).

Question: And the MIC90 (Klebsiella spp.)?
Answer: Its MIC90 is over 64 µg/mL.

Question: What about the Mode (Klebsiella spp.) of the same molecule?
Answer: Its Mode is 16 µg/mL.

Question: What about the “Cumulative percentage of isolates at MIC” value (Klebsiella spp.; 8 μg/mL) of the same molecule?
Answer: The value was 10.0%.

Question: What about the “Number of test isolates at MIC” value (Klebsiella spp.; 8 μg/mL) of the same molecule?
Answer: The value was 5.

Question: What about the “Cumulative percentage of isolates at MIC” value (Klebsiella spp.; 16 μg/mL) of the same molecule?
Answer: Its value is 46.0%.

Question: And the “Number of test isolates at MIC” value (Klebsiella spp.; 16 μg/mL)?
Answer: Its value is 18.

Question: And the “Cumulative percentage of isolates at MIC” value (Klebsiella spp.; 32 μg/mL)?
Answer: Its value is 64.0%.

Question: What about the “Number of test isolates at MIC” value (Klebsiella spp.; 32 μg/mL) of the same molecule?
Answer: Its value is 9.

Question: What about the “Cumulative percentage of isolates at MIC” value (Klebsiella spp.; 64 μg/mL) of the same molecule?
Answer: The value was 80.0%.

Question: What about the “Number of test isolates at MIC” value (Klebsiella spp.; 64 μg/mL) of the same molecule?
Answer: Its value is 8.

Question: And the “Cumulative percentage of isolates at MIC” value (Klebsiella spp.; >64 μg/mL)?
Answer: Its value is 100.0%.

Question: What about the “Number of test isolates at MIC” value (Klebsiella spp.; >64 μg/mL) of the same molecule?
Answer: Its value is 10.

Question: And the MIC90 (Klebsiella spp.; listed as RFX)?
Answer: The MIC90 was over 64 µg/mL.

Question: What about the MIC50 (Prevotella spp.) of the same molecule?
Answer: The MIC50 was 0.12 µg/mL (≈ 0.153 µM).

Question: What about the MIC90 (Prevotella spp.) of the same molecule?
Answer: The MIC90 was 1 µg/mL (≈ 1.27 µM).

Question: And the MIC50 (Prevotella spp.; [2])?
Answer: Its MIC50 is 0.12 µg/mL (≈ 0.153 µM).

Question: And the MIC90 (Prevotella spp.; [2])?
Answer: The MIC90 was 1 µg/mL (≈ 1.27 µM).

Question: And the MIC range (Prevotella spp.; [2])?
Answer: Its MIC range is 0.03 to 32 µg/mL.

Question: What about the Mode (Prevotella spp.; [2]) of the same molecule?
Answer: Its Mode is 0.12 µg/mL.

Question: What about the MIC ([1]; S. agaloctiae ATCC 13813, selected on rifaximin 4X MIC, Colony A) of the same molecule?
Answer: Its MIC is over 8 µg/mL.

Question: What about the MIC ([1]; S. agaloctiae ATCC 13813, selected on rifaximin 4X MIC, Colony B) of the same molecule?
Answer: Its MIC is over 8 µg/mL.

Question: And the MIC ([1]; S. agaloctiae ATCC 13813, selected on rifaximin 8X MIC, Colony A)?
Answer: The MIC was over 8 µg/mL.

Question: And the MIC ([1]; S. agaloctiae ATCC 13813, selected on rifaximin 8X MIC, Colony B)?
Answer: The MIC was over 8 µg/mL.

Question: What about the MIC ([1]; S. agaloctiae ATCC 13813 Parent) of the same molecule?
Answer: Its MIC is 0.12 µg/mL (≈ 0.153 µM).

Question: And the MIC [1, 3]?
Answer: The MIC was over 8 µg/mL.

Question: What about the MIC [1, 4] of the same molecule?
Answer: The MIC was over 8 µg/mL.

Question: And the MIC [1, 5]?
Answer: Its MIC is over 8 µg/mL.

Question: And the MIC [1, 6]?
Answer: The MIC was over 8 µg/mL.

Question: What about the MIC [1, 7] of the same molecule?
Answer: The MIC was 0.015 µg/mL (≈ 0.0191 µM).

Question: And the MIC [1, 8]?
Answer: The MIC was over 8 µg/mL.

Question: And the MIC [1, 9]?
Answer: The MIC was over 8 µg/mL.

Question: What about the MIC [1, 10] of the same molecule?
Answer: Its MIC is over 8 µg/mL.

Question: And the MIC [1, 11]?
Answer: The MIC was over 8 µg/mL.

Question: What about the MIC ([1]; S. pyogenes ATCC 49399 Parent) of the same molecule?
Answer: The MIC was 0.06 µg/mL (≈ 0.0763 µM).

Question: And the “broth microdilution MIC of selected colonies relative to parent strain” value ([1]; colonies selected at 4× and 8× the MIC)?
Answer: The value was “several-fold higher”.
